Columns and labels:
Borrelia burgdorferi = test: Field trial Mason's Island: spirochete infection of white-footed mice (ear biopsy culture); type: in vivo
Protocol: (§1) A field trial was conducted from April to September, 1999 on Mason's Island, Mystic, Conn. […] Four sites situated in undeveloped natural areas were used as untreated controls.
(§2) Modified Protecta Jr. (Bell Laboratories, Madison, Wis.) mouse bait boxes (FIG. 2) were used in this study. The modifications were as follows: a cotton yarn wick was stapled to the underside of the lid just in front of the feeding area entry; two adsorbent nylon strips were affixed to the outer edges of the food block trays. Two Detex monitoring blocks (Bell Laboratories, Madison, Wis.) were placed in each box, 2–3 ml of fipronil topical formulation was applied to the wick and adsorbent strips with a squirt bottle, and the lid was closed and locked with a set screw prior to placement on properties. A 0.43% w/w formulation of fipronil was used in May and June and this was replaced by a 1% w/w formulation from July through September.
(§3) White-footed mice were live-trapped using 3″×3″×10″ Sherman mouse traps (Sherman Trap Co., Tallahassee, Fla.). Pre-treatment trapping was conducted in April and May and post-treatment trapping from June through September to determine: 1) distribution of mice on individual properties, 2) tick burdens on animals, and 3) spirochete infection rates in mice between treated and untreated plots. Each mouse was anesthetized, ectoparasites were removed, ear tissue was collected for spirochete culture, mice were then bled, weighed, measured, ear-tagged and released at the point of capture. In July and August cloth drags were used to collect host-seeking larval ticks for comparison with results of host-associated tick data.
(§4) Based upon pre-treatment mouse distribution and abundance data, a total of 125 bait boxes were set out on 13 residences. Boxes were spaced approximately 30 feet apart along the interface with maintained landscaping and wood lot or scrub brush. The number of boxes/property ranged from 4 to 20, depending on property size and presence of suitable mouse habitat. Initial treatment with fipronil began on May 17 and at approximate 4-week intervals each box was re-baited with 2 food blocks and the wick and strips were replenished with 2–3 ml of fipronil formulation. A record of relative use by white-footed mice was kept for each box during the trial.
3) Impact of fipronil on the natural transmission cycle of B. burgdorferi—Individual captured mice were tested for infection with B. burgdorferi by culture of ear biopsy tissue in BSK H growth media.

Ixodes scapularis = test: Field trial Mason's Island: tick burdens on white-footed mice, fipronil-treated bait boxes; type: in vivo; conditions: for mean number of larvae/mouse: treated area
Protocol: as §1, §2, §3, §4

I. spinipalpis = test: Field trial Larimer County, Colorado: ticks on Neotoma mexicana, treated bait boxes; type: in vivo, Ixodes spinipalpis; set-up: I. spinipalpis control level: concentration or dose not given beside the values; conditions: for I. spinipalpis control level: tick burdens treated vs untreated rats, FRONT LINE TOP SPOT
Protocol: A field trial testing fipronil (FRONT LINE TOP SPOT®) on native rodent-associated ticks was conducted in a Rocky Mountains foothills habitat in Larimer County, Colo. Treated and untreated plots consisted of 35 rat dens within 5 hectares each. A mark-release-capture study with Neotoma mexicana began in April, and captured rats were anesthetized and ticks removed, identified and quantified. The principal tick on N. mexicana is I. spinipalpis, a nidicolous, competent vector in enzootic transmission cycles in Colorado, California and Oregon. […] Fipronil was passively applied to rats as they entered and exited modified commercially available bait boxes as described in Example 1. Treated bait boxes were set out in May, left in place, and retreated and rebaited at four-week intervals through August. Collections were made at 1, 4, 8, 12 and 16 weeks post-application. N. mexicana collected in the untreated control area numbered 92 with 150 total captures resulting in 1273 fleas and ticks. In the fipronil area, 110 individual rats were collected with a total of 179 captures resulting in 416 fleas and ticks.

[1] = tested on: nymphal Ixodes scapularis; test: Fipronil bioassay: treated laboratory mice challenged with nymphal ticks; type: in vivo; conditions: for % of nymphs fed to repletion: 20 μl single topical application
Protocol: Fipronil Bioassay: To better determine the most efficacious concentration of fipronil active ingredient for use in the bait box method of tick control, a trial was conducted using treated and untreated laboratory mice challenged with nymphal Ixodes scapularis. Individual groups of 5 mice were treated with 20 microliters (one drop) of 1%, 0.75%, 0.5% and 0.43% of fipronil topical oil formulation micropipetted between the scapulae. Five mice were used as untreated controls. Individual mice were challenged with 10 nymphs each on days 14, 28 and 42. During tick challenge mice were held over water in a triple barrier/cage system. Ticks that fed to repletion were collected from the water and used as a measurement for acaricidal activity.
4) Fipronil bioassay—A total of 25 mice and 750 nymphal I. scapularis were used in this laboratory trial. The volume of 20 microliters (one average-sized drop) was considered the smallest amount of liquid acaricide that a mouse would apply to itself on a single visit to a bait box.

[2] = recaptured adult white-footed mice following fipronil treatment, chi-square p = 0.01

With N#Cc1nn(-c2c(Cl)cc(C(F)(F)F)cc2Cl)c(N)c1[S+]([O-])C(F)(F)F (stereo not drawn) [Fipronil, 5-amino-3-cyano-1-(2,6-dichloro-4-trifluoromethylphenyl)-4-trifluoromethylsulfinylpyrazole] the “% of spirochete-infected mice” value (Borrelia burgdorferi; Peromyscus leucopus, fipronil area, 164 mice, April-September 1999 (untreated 69%)) was 38%, the “% of properties with infected mice” value (Borrelia burgdorferi; fipronil area, 12/13 properties (untreated 100%)) was 92% and the “young mice that became infected” value (Borrelia burgdorferi; post-treatment period, 26 young mice (body mass <17 g), fipronil area (untreated 30% of 26)) was “none”. For the same compound, the “No. of mice + at first capture, remained +” value (Borrelia burgdorferi; recaptured adult white-footed mice following fipronil treatment) was 18, the “No. of mice − at first capture, became +” value (Borrelia burgdorferi; [2]) was 4 and the “No. of mice − at first capture, remained −” value (Borrelia burgdorferi; [2]) was 14. For the same compound, the “treated properties with host-seeking larvae present (cloth drags)” value (Ixodes scapularis; July and August, seven of 13 treated properties) was 54%, the “larvae on treated mice” value (Ixodes scapularis; course of the study, except one engorged larva in August and one larva in September) was “not present” and the “mean number of larvae/mouse” value (Ixodes scapularis; August (untreated 9.1)) was 0.03. For the same compound, the “mean number of larvae/mouse” value (Ixodes scapularis; July (untreated 4.5)) was 0, the “live nymphs on mice after fipronil treatment” value (Ixodes scapularis; white-footed mice, fipronil-treated area, post-treatment June-September, bait boxes 0.43% then 1% w/w) was “not found” and the “fleas and ticks collected” value (I. spinipalpis; fipronil area, 110 rats, 179 captures (untreated: 1273 from 150 captures)) was 416. For the same compound, the “I. spinipalpis control level” value (I. spinipalpis; week 1 post-application) was 25%, the “I. spinipalpis control level” value (I. spinipalpis; week 4 post-application) was 90% and the “I. spinipalpis control level” value (I. spinipalpis; week 8 post-application) was 75%. The “I. spinipalpis control level” value (I. spinipalpis; week 12 post-application) was 97%, the “I. spinipalpis control level” value (I. spinipalpis; week 16 post-application) was 93% and the “% of nymphs fed to repletion” value ([1]; 0.43% (85 μg/mouse), 14 days) was 0%. For the same compound, the “% of nymphs fed to repletion” value ([1]; 0.43% (85 μg/mouse), 28 days) was 16%, the “% of nymphs fed to repletion” value ([1]; 0.43% (85 μg/mouse), 42 days) was 30% and the “% of nymphs fed to repletion” value ([1]; 0.50% (100 μg/mouse), 14 days) was 0%. For the same compound, the “% of nymphs fed to repletion” value ([1]; 0.50% (100 μg/mouse), 28 days) was 8%, the “% of nymphs fed to repletion” value ([1]; 0.50% (100 μg/mouse), 42 days) was 24% and the “% of nymphs fed to repletion” value ([1]; 1.00% (200 μg/mouse), 14 days) was 0%. For the same compound, the “% of nymphs fed to repletion” value ([1]; 1.00% (200 μg/mouse), 28 days) was 0%, the “% of nymphs fed to repletion” value ([1]; 1.00% (200 μg/mouse), 42 days) was 2% and the “optimum concentration of fipronil to kill ticks on mice for 30 days after a single exposure” value ([1]; 20 microliters (=150 micrograms)) was 0.75%.

— patent US7195756B2, “Control of arthropod vectors of parasitic diseases” (Centers for Disease Control and Prevention, priority 2000, dated 2007)
